{"source": "patent US7030126B2", "about": "“Use of polyamine analogs for amyotrophic lateral sclerosis” (ALS Therapy Development Foundation, Inc., priority 2001, dated 2006)", "key": {"SOD1 G93A mice [1]": {"test_system": "SOD1 G93A mice", "experiment": "Discontinuous dosing of DFMO in SOD-1 (G93A) mouse model of ALS: survival and neurological score", "type": "in vivo", "excerpt": "(§1) Survival in the mouse is copy dependent.\n(§2) Controls animals were given water as vehicle.\nResults are shown in FIGS. 2 and 3 and described below."}, "SOD1 G93A mice [2]": {"test_system": "SOD1 G93A mice", "experiment": "Ongoing IP injection study of DFMO in SOD1 G93A mice", "type": "in vivo, mouse", "conditions": "3200 mg/kg", "excerpt": "Studies are currently underway to analyze polyamines in male vs. female mSOD1 mice and wild-type mice. While positive effects are seen in male mice, the effect is less reliable at current doses. Differences in polyamine synthesis and regulation exist between the sexes and may account for the different observed effects. […] Higher plasma concentration of DFMO can be achieved by systemic delivery as opposed to oral delivery."}, "SOD1 G93A mice [3]": {"test_system": "SOD1 G93A mice", "experiment": "Continuous dosing of DFMO in SOD-1 (G93A) mouse model of ALS: survival and neurological score", "type": "in vivo", "method": "as §1, §2\nDuring this study, DFMO was delivered chronically at a dose of 3200 mg/Kg/day in drinking water […] without any drug holiday until death according to the methods described in Example 1. Results are shown in FIGS. 4–9 and described below."}, "SOD1 G93A mice [4]": {"test_system": "SOD1 G93A mice", "experiment": "DENSPM in SOD-1 (G93A) mouse model of ALS: survival and neurological score", "type": "in vivo", "conditions": "female mice", "excerpt": "as §1\nResults are shown in FIGS. 12 and 13 and described below."}, "[5]": {"test_system": "patients with advanced non-small cell lung cancer", "conditions": "Phase I; cited from earlier work"}, "[6]": {"test_system": "cellular concentrations of putrescine, spermidine and spermine", "conditions": "cited from earlier work"}, "SOD1 G93A mice [7]": {"test_system": "SOD1 G93A mice", "excerpt": "(vi) Neurological Scoring: Neurological score of each limb was monitored and recorded according to a defined 4-point scale defined below: […]"}, "[8]": {"conditions": "24 mg/kg/day IP twice daily till death, FIG. 12"}}, "note": "Like-named read-outs stand apart in the source and are kept apart here.", "data": [{"smiles": "NCCCC(N)(C(=O)O)C(F)F", "note": "(racemic) [DFMO, 2-(Difuoromethyl)-DL-ornithine]", "values": [{"measurement": "onset of disease", "setting": "SOD1 G93A mice [1]; 3200 mg/Kg/day in drinking water, 21 days on, 7 day drug holiday", "value": "delays the onset of disease"}, {"measurement": "survival", "setting": "SOD1 G93A mice [1]; 3200 mg/Kg/day in drinking water, 21 days on, 7 day drug holiday, FIG. 2", "value": "extends the survival"}, {"measurement": "neurological score analysis, effect", "setting": "SOD1 G93A mice [1]; combined male and female results, discontinuous delivery", "value": "No effect"}, {"measurement": "neurological score analysis, effect", "setting": "SOD1 G93A mice [1]; female mice, during drug delivery period, discontinuous delivery, FIG. 3", "value": "protective"}, {"measurement": "deaths of animals in the treatment group that occurred during the drug holiday or a few days immediately succeeding the holiday", "setting": "SOD1 G93A mice [1]; female mice, 3200 mg/Kg/day in drinking water, 21 days on, 7 day drug holiday, FIG. 2", "value": 70, "unit": "%"}, {"measurement": "total female effect", "setting": "SOD1 G93A mice [1]; female mice, discontinuous delivery, FIG. 3", "value": 3.5, "unit": "%"}, {"measurement": "neurological score analysis, effect", "setting": "SOD1 G93A mice [1]; male mice, discontinuous delivery", "value": "No effect"}, {"measurement": "trend in male mice", "setting": "SOD1 G93A mice [2]", "value": "positive male trend"}, {"measurement": "onset of disease", "setting": "SOD1 G93A mice [3]; 3200 mg/Kg/day in drinking water, no drug holiday", "value": "delays the onset of disease"}, {"measurement": "life span / survival", "setting": "SOD1 G93A mice [3]; 3200 mg/Kg/day in drinking water, no drug holiday, FIGS. 4, 6 and 8", "value": "extended the life span"}, {"measurement": "neurological score analysis, effect", "setting": "SOD1 G93A mice [3]; combined male and female, continuous delivery, FIG. 5", "value": "protective"}, {"measurement": "effect", "setting": "SOD1 G93A mice [3]; female mice, continuous delivery", "value": 11.48, "unit": "%"}, {"measurement": "neurological score analysis, effect", "setting": "SOD1 G93A mice [3]; female mice, continuous delivery, FIG. 9", "value": "protective"}, {"measurement": "total combined effect", "setting": "SOD1 G93A mice [3]; male and female combined, continuous delivery, Cox proportional hazard, litter effect as frailty term, p=0.02", "value": 9.69, "unit": "%"}, {"measurement": "effect", "setting": "SOD1 G93A mice [3]; male mice, continuous delivery", "value": 8.21, "unit": "%"}, {"measurement": "neurological score analysis, effect", "setting": "SOD1 G93A mice [3]; male mice, continuous delivery, FIG. 7", "value": "protective"}]}, {"smiles": "CCNCCCNCCCNCCCNCC", "note": "[DENSPM, N(1),N(11)-diethylnorspermine]", "values": [{"measurement": "onset of disease", "setting": "SOD1 G93A mice [4]; [8]", "value": "delays the onset of disease"}, {"measurement": "survival", "setting": "SOD1 G93A mice [4]; [8]", "value": "extends the survival"}, {"measurement": "neurological score analysis, effect", "setting": "SOD1 G93A mice [4]; 24 mg/kg/day IP twice daily, FIG. 13", "value": "protective"}, {"measurement": "toxicity in patients", "setting": "[5]", "value": "minimal toxicity"}, {"measurement": "cellular concentrations of putrescine, spermidine and spermine", "setting": "[6]", "value": "reduce"}]}, {"smiles": "NC(=O)NO", "note": "[hydroxyurea]", "values": [{"measurement": "onset of ALS disease", "setting": "SOD1 G93A mice [7]; 250 mg/Kg/day IP once daily, day 50 to day 110", "value": "delays the onset of ALS disease"}, {"measurement": "life span / survival", "setting": "SOD1 G93A mice [7]; female mice, 250 mg/Kg/day IP once daily, day 50 to day 110, FIG. 10", "value": "extended the life span"}, {"measurement": "neurological score analysis, effect", "setting": "SOD1 G93A mice [7]; female mice, 250 mg/Kg/day IP, FIG. 11", "value": "protective"}]}]}
